Assay results reported in ChEMBL document CHEMBL4118118, “Hydrophobic structure of hairpin ten-ring pyrrole-imidazole polyamides enhances tumor tissue accumulation/retention in vivo” (Bioorg Med Chem, 2018).

Tests used:
[1] = Drug uptake in human LS180 cells up to 1 uM in presence of 4 degC temperature for 2 hrs by fluorospectrometry; format: ADME, cell-based; conditions: ls180, 2 h
[2] = Drug uptake in tumor of nude BALB/c mouse xenografted with human LS180 cells at 1 mg/kg, iv measured at 9 days post administration by DAPI-based confocal laser microscopic analysis; format: ADME, organism-based, Neoplasm; conditions: in vivo, 216 h
[3] = Drug localization in nucleus of human SW480 cells at 1 uM after 2 hrs by DAPI-fluoresecence based confocal laser microscopy; format: ADME, subcellular; conditions: sw480, 2 h
[4] = Drug uptake in nude BALB/c mouse body cavity xenografted with human LS180 cells assessed as increase in mean fluorescence intensity at 1 mg/kg, iv measured at 24 hrs post administration by fluorescence-based imaging analysis; format: ADME, organism-based; conditions: in vivo
[5] = Drug uptake in human SW480 cells after 24 hrs by fluorospectrometry; format: ADME, cell-based; conditions: sw480, 24 h
[6] = Octanol water partition coefficient, log P of the compound by reverse-phase HPLC method; format: physicochemical
[7] = Drug uptake in human SW480 cells xenografted in nude BALB/c mouse at 1 mg/kg, iv measured after 9 days post administration by fluorescence-based imaging analysis; format: ADME, organism-based, Neoplasm; conditions: in vivo, 216 h
[8] = Drug uptake in spleen of nude BALB/c mouse xenografted with human LS180 cells at 1 mg/kg, iv measured at 3 to 9 days post administration by DAPI-based confocal laser microscopic analysis; format: ADME, organism-based; conditions: in vivo
[9] = Drug uptake in tumor of nude BALB/c mouse xenografted with human SW480 cells at 1 mg/kg, iv measured up to 22 days post administration by fluorescence-based imaging analysis; format: ADME, organism-based, Neoplasm; conditions: in vivo, 528 h
[10] = Drug uptake in heart of nude BALB/c mouse xenografted with human LS180 cells at 1 mg/kg, iv measured at 3 to 9 days post administration by DAPI-based confocal laser microscopic analysis; format: ADME, organism-based; conditions: in vivo
[11] = Drug uptake in tumor of nude BALB/c mouse xenografted with human LS180 cells at 1 mg/kg, iv measured at 3 days post administration by DAPI-based confocal laser microscopic analysis; format: ADME, organism-based, Neoplasm; conditions: in vivo, 72 h
[12] = Drug uptake in kidneys of nude BALB/c mouse xenografted with human LS180 cells at 1 mg/kg, iv measured at 3 days post administration by DAPI-based confocal laser microscopic analysis; format: ADME, organism-based, Kidney; conditions: in vivo, 72 h
[13] = Drug uptake in tumor of nude BALB/c mouse xenografted with human LS180 cells at 1 mg/kg, iv measured after 9 days post administration by fluorescence-based imaging analysis; format: ADME, organism-based, Neoplasm; conditions: in vivo, 216 h
[14] = Drug uptake in tumor of nude BALB/c mouse xenografted with human LS180 cells at 1 mg/kg, iv measured at 2 hrs post administration by fluorescence-based imaging analysis; format: ADME, organism-based, Neoplasm; conditions: in vivo
[15] = Drug localization in nucleus of human LS180 cells at 1 uM after 2 hrs by DAPI-fluoresecence based confocal laser microscopy; format: ADME, subcellular; conditions: ls180, 2 h
[16] = Drug uptake in human LS180 cells after 24 hrs by fluorospectrometry; format: ADME, cell-based; conditions: ls180, 24 h
[17] = Drug uptake in lungs of nude BALB/c mouse xenografted with human LS180 cells at 1 mg/kg, iv measured at 3 to 9 days post administration by DAPI-based confocal laser microscopic analysis; format: ADME, organism-based, Lung; conditions: in vivo
[18] = Retention time of the compound by reverse-phase HPLC method; format: physicochemical
[19] = Drug uptake in tumor of nude BALB/c mouse xenografted with human LS180 cells assessed as increase in mean fluorescence intensity at 1 mg/kg, iv measured at 3 to 72 hrs post administration by fluorescence-based imaging analysis; format: ADME, organism-based, Neoplasm; conditions: in vivo
[20] = Drug uptake in liver of nude BALB/c mouse xenografted with human LS180 cells at 1 mg/kg, iv measured at 3 days post administration by DAPI-based confocal laser microscopic analysis; format: ADME, organism-based; conditions: in vivo, 72 h
[21] = Drug uptake in nude BALB/c mouse body cavity xenografted with human LS180 cells assessed as increase in mean fluorescence intensity at 1 mg/kg, iv measured at 1 hr post administration by fluorescence-based imaging analysis; format: ADME, organism-based; conditions: in vivo
[22] = Drug uptake in tumor of nude BALB/c mouse xenografted with human LS180 cells at 1 mg/kg, iv measured at 48 hrs post administration by fluorescence-based imaging analysis; format: ADME, organism-based, Neoplasm; conditions: in vivo
[23] = Drug uptake in tumor of human SW480 cells xenografted in nude BALB/c mouse assessed as increase in mean fluorescence intensity at 1 mg/kg, iv measured at 0.25 to 72 hrs post administration by fluorescence-based imaging analysis; format: ADME, organism-based, Neoplasm; conditions: in vivo
[24] = Drug uptake in tumor of nude BALB/c mouse xenografted with human LS180 cells assessed as increase in mean fluorescence intensity at 1 mg/kg, iv measured at 3 hrs post administration by fluorescence-based imaging analysis; format: ADME, organism-based, Neoplasm; conditions: in vivo
[25] = Drug uptake in tumor of nude BALB/c mouse xenografted with human LS180 cells assessed as increase in mean fluorescence intensity at 1 mg/kg, iv measured at 48 hrs post administration by fluorescence-based imaging analysis; format: ADME, organism-based, Neoplasm; conditions: in vivo
[26] = Drug uptake in human LS180 cells up to 1 uM after 24 hrs by fluorospectrometry; format: ADME, cell-based; conditions: ls180, 24 h
[27] = Drug uptake in tumor of nude BALB/c mouse xenografted with human LS180 cells at 1 mg/kg, iv measured after 4 days post administration by fluorescence-based imaging analysis; format: ADME, organism-based, Neoplasm; conditions: in vivo, 96 h
[28] = Drug uptake in human SW480 cells up to 1 uM after 24 hrs by fluorospectrometry; format: ADME, cell-based; conditions: sw480, 24 h
[29] = Drug uptake in tumor of nude BALB/c mouse xenografted with human LS180 cells assessed as increase in mean fluorescence intensity at 1 mg/kg, iv measured at 0.25 to 72 hrs post administration by fluorescence-based imaging analysis; format: ADME, organism-based, Neoplasm; conditions: in vivo
[30] = Drug uptake in tumor of nude BALB/c mouse xenografted with human LS180 cells assessed as increase in mean fluorescence intensity at 1 mg/kg, iv measured at 6 hrs post administration by fluorescence-based imaging analysis; format: ADME, organism-based, Neoplasm; conditions: in vivo
[31] = Drug uptake in tumor of nude BALB/c mouse xenografted with human LS180 cells assessed as mean fluorescence intensity at 1 mg/kg, iv measured at 72 hrs post administration by fluorescence-based imaging analysis; format: ADME, organism-based, Neoplasm; conditions: in vivo
Mus musculus [32] = assay: Drug uptake in non-tumor tissue area of nude BALB/c mouse xenografted with human LS180 cells assessed as increase in mean fluorescence intensity at 1 mg/kg, iv measured at 24 hrs post administration by fluorescence-based imaging analysis; format: ADME, organism-based; conditions: in vivo
Mus musculus [33] = assay: Drug uptake in non-tumor tissue area of nude BALB/c mouse xenografted with human LS180 cells assessed as increase in mean fluorescence intensity at 1 mg/kg, iv measured at 5 mins post administration by fluorescence-based imaging analysis; format: ADME, organism-based; conditions: in vivo

Row | Drug uptake [1] | Drug uptake [2] | Drug uptake [3] | Drug uptake [4] | logP [6] | Drug uptake [8] | Drug uptake [10] | Drug uptake [11] | Drug uptake [12] | Drug uptake [13] | Drug uptake [14] | Drug uptake [15] | Drug uptake [17] | Retention_time [18] | Drug uptake [20] | Drug uptake [22] | Drug uptake [23] | Drug uptake [26] | Drug uptake [28] | also measured | SMILES
1 | Active | Active | Active | Not Active | 1.5 | Not Active | Not Active | Active | Active | Active | Active | Active | Not Active | 11.73 min | Active | 50% | Active |  |  | Drug uptake [5]: Dose-dependent effect; Drug uptake [7]: Active; Drug uptake [9]: Active; Drug uptake [16]: Dose-dependent effect; Drug uptake [19]: Active; Drug uptake [21]: Active | CN(C)CCCNC(=O)CCNC(=O)c1cc(NC(=O)c2cc(NC(=O)CCNC(=O)c3cc(NC(=O)c4cc(NC(=O)c5cc(NC(=O)CCCNC(=O)c6cc(NC(=O)c7cc(NC(=O)c8cc(NC(=O)CCNC(=O)c9nc(NC(=O)c%10cc(NC(=O)CCNC(=S)Nc%11ccc(-c%12c%13ccc(=O)cc-%13oc%13cc(O)ccc%12%13)c(C(=O)O)c%11)cn%10C)cn9C)cn8C)cn7C)cn6C)cn5C)cn4C)cn3C)cn2C)cn1C
2 |  |  |  |  | 1.46 |  |  |  |  |  |  |  |  | 11.4 min |  |  |  |  |  |  | CN(C)CCCNC(=O)CCNC(=O)c1cc(NC(=O)c2cc(NC(=O)CCNC(=O)c3cc(NC(=O)c4cc(NC(=O)c5cc(NC(=O)CCCNC(=O)c6cc(NC(=O)c7cc(NC(=O)c8cc(NC(=O)CCNC(=O)c9nc(NC(=O)c%10nc(NC(=O)CCNC(=S)Nc%11ccc(-c%12c%13ccc(=O)cc-%13oc%13cc(O)ccc%12%13)c(C(=O)O)c%11)cn%10C)cn9C)cn8C)cn7C)cn6C)cn5C)cn4C)cn3C)cn2C)cn1C
3 |  |  |  |  | 1.36 |  |  |  |  |  |  |  |  | 10.48 min |  |  |  |  |  |  | CN(C)CCCNC(=O)CCNC(=O)c1cc(NC(=O)c2cc(NC(=O)CCNC(=O)c3cc(NC(=O)c4cc(NC(=O)c5cc(NC(=O)CCCNC(=O)c6cc(NC(=O)c7nc(NC(=O)c8nc(NC(=O)CCNC(=O)c9nc(NC(=O)c%10nc(NC(=O)CCNC(=S)Nc%11ccc(-c%12c%13ccc(=O)cc-%13oc%13cc(O)ccc%12%13)c(C(=O)O)c%11)cn%10C)cn9C)cn8C)cn7C)cn6C)cn5C)cn4C)cn3C)cn2C)cn1C
4 | Not Active | Not Active | Active | Not Active | 1.19 | Not Active | Not Active | Active | Active |  | Active | Active | Not Active | 8.86 min | Active | 50% | Active | Active | Active | Drug uptake [24]: Active; Drug uptake [25]: Not Active; Drug uptake [27]: Not Active | CN(C)CCCNC(=O)CCNC(=O)c1cc(NC(=O)c2cc(NC(=O)CCNC(=O)c3cc(NC(=O)c4cc(NC(=O)c5cc(NC(=O)CCCNC(=O)c6nc(NC(=O)c7nc(NC(=O)c8nc(NC(=O)CCNC(=O)c9nc(NC(=O)c%10nc(NC(=O)CCNC(=S)Nc%11ccc(-c%12c%13ccc(=O)cc-%13oc%13cc(O)ccc%12%13)c(C(=O)O)c%11)cn%10C)cn9C)cn8C)cn7C)cn6C)cn5C)cn4C)cn3C)cn2C)cn1C
5 |  |  | Not Active |  |  |  |  |  |  |  |  | Not Active |  |  |  |  |  |  |  | Drug uptake [29]: Not Active | O=C(O)c1ccccc1-c1c2ccc(=O)cc-2oc2cc(O)ccc12
6 |  | Not Active | Active |  | 1.42 | Not Active | Not Active | Active | Active | Not Active | Active | Active | Not Active | 10.97 min | Active | 50% | Active | Active | Active | Drug uptake [30]: Active; Drug uptake [31]: Active; Drug uptake (Mus musculus [32]): Not Active; Drug uptake (Mus musculus [33]): Active | CN(C)CCCNC(=O)CCNC(=O)c1cc(NC(=O)c2cc(NC(=O)CCNC(=O)c3cc(NC(=O)c4cc(NC(=O)c5cc(NC(=O)CCCNC(=O)c6cc(NC(=O)c7cc(NC(=O)c8nc(NC(=O)CCNC(=O)c9nc(NC(=O)c%10nc(NC(=O)CCNC(=S)Nc%11ccc(-c%12c%13ccc(=O)cc-%13oc%13cc(O)ccc%12%13)c(C(=O)O)c%11)cn%10C)cn9C)cn8C)cn7C)cn6C)cn5C)cn4C)cn3C)cn2C)cn1C
